Results taken from ChEMBL document CHEMBL4673197, “Microwave-assisted green synthesis of bile acid derivatives and evaluation of glucocorticoid receptor binding” (RSC Med Chem, 2021).
Calls of active or inactive are those of the source. No cut-off for these calls is given here.

Key:
Format in all cases: cell-based
[1] = target: T1, Glucocorticoid receptor (Rattus norvegicus) (UniProt P06536); assay: Binding affinity to enhanced YFP tagged rat glucocorticoid receptor (497-795)-LBD expressed in Saccharomyces cerevisiae FY250 cells by measuring increase in fluorescence intensity incubated at 100 uM for 15 hrs by fluorescence microscopy
T1 sequence (whole entry): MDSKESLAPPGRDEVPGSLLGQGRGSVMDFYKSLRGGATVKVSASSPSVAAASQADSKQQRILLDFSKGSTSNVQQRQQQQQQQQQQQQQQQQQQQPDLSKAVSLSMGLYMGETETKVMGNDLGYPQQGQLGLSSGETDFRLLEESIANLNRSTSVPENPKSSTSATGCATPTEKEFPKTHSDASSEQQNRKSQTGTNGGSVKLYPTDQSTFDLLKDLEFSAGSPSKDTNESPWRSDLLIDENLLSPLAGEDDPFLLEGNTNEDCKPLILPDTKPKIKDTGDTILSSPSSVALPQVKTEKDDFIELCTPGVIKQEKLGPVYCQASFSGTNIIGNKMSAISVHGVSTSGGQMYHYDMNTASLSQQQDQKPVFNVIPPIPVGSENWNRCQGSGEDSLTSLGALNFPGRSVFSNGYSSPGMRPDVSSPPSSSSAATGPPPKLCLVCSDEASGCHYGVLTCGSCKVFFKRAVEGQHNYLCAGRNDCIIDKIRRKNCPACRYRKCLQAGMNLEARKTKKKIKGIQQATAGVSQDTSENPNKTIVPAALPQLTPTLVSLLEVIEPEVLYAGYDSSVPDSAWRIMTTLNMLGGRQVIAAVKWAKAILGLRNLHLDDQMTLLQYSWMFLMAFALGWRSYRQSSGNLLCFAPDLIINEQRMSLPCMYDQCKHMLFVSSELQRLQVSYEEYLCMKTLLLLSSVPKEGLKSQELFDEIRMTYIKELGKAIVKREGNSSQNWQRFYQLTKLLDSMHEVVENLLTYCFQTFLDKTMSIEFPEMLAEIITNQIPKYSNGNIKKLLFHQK

[2] = target: T1, Glucocorticoid receptor (Rattus norvegicus); assay: Binding affinity to enhanced YFP tagged rat glucocorticoid receptor (497-795)-LBD expressed in Saccharomyces cerevisiae FY250 cells by measuring fluorescence changes incubated for 15 hrs by fluorescence spectroscopy
[3] = target: T1, Glucocorticoid receptor (Rattus norvegicus); assay: Binding affinity to enhanced YFP tagged rat glucocorticoid receptor (497-795)-LBD expressed in Saccharomyces cerevisiae FY250 cells by measuring fluorescence changes incubated at 100 uM for 15 hrs by fluorescence spectroscopy

Compound | Activity [1] | Activity [2] | Activity [3]
C[C@]12C=CC(=O)C=C1CC[C@@H]1[C@@H]2[C@@H](O)C[C@@]2(C)[C@H]1CC[C@]2(O)C(=O)CO | Active | Dose-dependent effect | 
C[C@H](CCC(=O)Nc1ccccc1)[C@H]1CC[C@H]2[C@@H]3CC[C@@H]4C[C@H](O)CC[C@]4(C)[C@H]3C[C@H](O)[C@]12C | Active |  | Active
C[C@H](CCC(=O)O)[C@H]1CC[C@H]2[C@@H]3CC[C@@H]4CCCC[C@]4(C)[C@H]3CC[C@]12C | Active |  | Active
